According to patent US8828696B2, “Use of Penicillin G Procaine as a selective antimicrobial agent in the production of alcohol by fermentation” (Lallemand Specialites, Inc, priority 2008, dated 2014):

Legend:
Lactobacillus fermentum = experiment: Bacterial inhibition test; type: cell-based; set-up: key: successful test corresponding to no growth is represented as (=); barely discernable growth is represented as (±); easily noticeable bacterial growth is represented as (+)
Excerpt: (§1) To directly measure the efficacy of Penicillin G Procaine and Penicillin G Potassium a bacterial inhibition test was designed using industrial isolates and chosen ATCC strains. The inhibition testing was spread over 0.1 ppm to 5.0 ppm for the Lactobacillus fermentum and 1.0 ppm to 5.0 ppm for Lactobacillus brevis species of bacteria due to the lack of response of Lactobacillus brevis at lower concentrations. […] The strains used were two isolates of Lactobacillus fermentum and 2 isolates of Lactobacillus brevis. The Lactobacillus fermentum series contained both an industry derived isolate Ind 1 and an ATCC strain while the Lactobacillus brevis series comprised of two isolates, Ind 1 and Ind 43 derived from the ethanol plants. The inhibition test plates were set in triplicate and read at 12 hour intervals up to 48 hours of test endpoint. The results below represent the mode average of the outcome from the triplicate inhibitory test sets for each trial. Table 11 lists the Lactobacillus fermentum and the Lactobacillus brevis results of the inhibition testing as follows: successful test corresponding to no growth is represented as (=), barely discernable growth is represented as (±) and easily noticeable bacterial growth is represented as (+). The set of control tests depict (=) control as just broth and (+) control as just broth with bacteria but without any antibiotic.
(§2) The trial was set up as follows:
(§3) • 1. Weigh out 0.1 g of each sample to be tested into a 15 ml centrifuge tube. • 2. Dissolve sample into 10 ml sterile water. […] Add antibiotic to clean tube, add 2 ml water. • b. Vortex, if antibiotic goes into solution add water for final volume of 10 ml. • c. […] Vortex until all material is in solution. • 3. Vortex the solutions to make sure that they are well mixed. • 4. Filter the solutions through a 0.2 μm syringe filter into a second labeled sterile centrifuge tube. • 5. Add antibiotic solution to MRS Broth for a final volume of 10 ml at the test concentration for each antibiotic. • 6. Mix organism solutions and add 2 μl to each of 3 wells of a 24 well plate. If tubes are used add the 2 μl to each of three tubes for each antibiotic. • 7. Transfer 1 ml of the antibiotic-broth solution to each well containing bacteria. • 8. Recap remaining antibiotic solution and return the tube to the tube rack. This tube will become the negative control for each dilution created. • 9. Add four μl of each bacterial culture to another set of wells and add […] of broth without antibiotics. These wells will be the positive controls. • 10. Incubate plates and tubes at 33 C for 48 hours, examining all samples at 24 hours for growth. Any turbidity detected should be a result of bacterial growth.

Lactobacillus brevis = experiment: Bacterial inhibition test; type: cell-based; set-up: key to bacterial growth in inhibition test: successful test corresponding to no growth is represented as (=); barely discernable growth is represented as (±); easily noticeable bacterial growth is represented as (+)
Excerpt: as §1, §2, §3

SMILES: CC1(C)S[C@@H]2[C@H](NC(=O)Cc3ccccc3)C(=O)N2[C@H]1C(=O)[O-].[K+] [Penicillin G Potassium]
- bacterial growth in inhibition test (Lactobacillus fermentum; ATCC L. fermentum, 0.1 ppm, Inc Time 12): =
- bacterial growth in inhibition test (Lactobacillus fermentum; ATCC L. fermentum, 0.1 ppm, Inc Time 24): =
- bacterial growth in inhibition test (Lactobacillus fermentum; ATCC L. fermentum, 0.1 ppm, Inc Time 36): ±
- bacterial growth in inhibition test (Lactobacillus fermentum; ATCC L. fermentum, 0.1 ppm, Inc Time 48): ±
- bacterial growth in inhibition test (Lactobacillus fermentum; ATCC L. fermentum, 0.3 ppm, Inc Time 12): =
- bacterial growth in inhibition test (Lactobacillus fermentum; ATCC L. fermentum, 0.3 ppm, Inc Time 24): =
- bacterial growth in inhibition test (Lactobacillus fermentum; ATCC L. fermentum, 0.3 ppm, Inc Time 36): =
- bacterial growth in inhibition test (Lactobacillus fermentum; ATCC L. fermentum, 0.3 ppm, Inc Time 48): =
- bacterial growth in inhibition test (Lactobacillus fermentum; ATCC L. fermentum, 0.5 ppm, Inc Time 12): =
- bacterial growth in inhibition test (Lactobacillus fermentum; ATCC L. fermentum, 0.5 ppm, Inc Time 24): =
- bacterial growth in inhibition test (Lactobacillus fermentum; ATCC L. fermentum, 0.5 ppm, Inc Time 36): =
- bacterial growth in inhibition test (Lactobacillus fermentum; ATCC L. fermentum, 0.5 ppm, Inc Time 48): =
- bacterial growth in inhibition test (Lactobacillus fermentum; ATCC L. fermentum, 1 ppm, Inc Time 12): =
- bacterial growth in inhibition test (Lactobacillus fermentum; ATCC L. fermentum, 1 ppm, Inc Time 24): =
- bacterial growth in inhibition test (Lactobacillus fermentum; ATCC L. fermentum, 1 ppm, Inc Time 36): =
- bacterial growth in inhibition test (Lactobacillus fermentum; ATCC L. fermentum, 1 ppm, Inc Time 48): =
- bacterial growth in inhibition test (Lactobacillus fermentum; ATCC L. fermentum, 5 ppm, Inc Time 12): =
- bacterial growth in inhibition test (Lactobacillus fermentum; ATCC L. fermentum, 5 ppm, Inc Time 24): =
- bacterial growth in inhibition test (Lactobacillus fermentum; ATCC L. fermentum, 5 ppm, Inc Time 36): =
- bacterial growth in inhibition test (Lactobacillus fermentum; ATCC L. fermentum, 5 ppm, Inc Time 48): =
- bacterial growth in inhibition test (Lactobacillus fermentum; Ind 1 L. fermentum, 0.1 ppm, Inc Time 12): =
- bacterial growth in inhibition test (Lactobacillus fermentum; Ind 1 L. fermentum, 0.1 ppm, Inc Time 24): ±
- bacterial growth in inhibition test (Lactobacillus fermentum; Ind 1 L. fermentum, 0.1 ppm, Inc Time 36): ±
- bacterial growth in inhibition test (Lactobacillus fermentum; Ind 1 L. fermentum, 0.1 ppm, Inc Time 48): ±
- bacterial growth in inhibition test (Lactobacillus fermentum; Ind 1 L. fermentum, 0.3 ppm, Inc Time 12): =
- bacterial growth in inhibition test (Lactobacillus fermentum; Ind 1 L. fermentum, 0.3 ppm, Inc Time 24): =
- bacterial growth in inhibition test (Lactobacillus fermentum; Ind 1 L. fermentum, 0.3 ppm, Inc Time 36): ±
- bacterial growth in inhibition test (Lactobacillus fermentum; Ind 1 L. fermentum, 0.3 ppm, Inc Time 48): ±
- bacterial growth in inhibition test (Lactobacillus fermentum; Ind 1 L. fermentum, 0.5 ppm, Inc Time 12): =
- bacterial growth in inhibition test (Lactobacillus fermentum; Ind 1 L. fermentum, 0.5 ppm, Inc Time 24): =
- bacterial growth in inhibition test (Lactobacillus fermentum; Ind 1 L. fermentum, 0.5 ppm, Inc Time 36): =
- bacterial growth in inhibition test (Lactobacillus fermentum; Ind 1 L. fermentum, 0.5 ppm, Inc Time 48): =
- bacterial growth in inhibition test (Lactobacillus fermentum; Ind 1 L. fermentum, 1.0 ppm, Inc Time 12): =
- bacterial growth in inhibition test (Lactobacillus fermentum; Ind 1 L. fermentum, 1.0 ppm, Inc Time 24): =
- bacterial growth in inhibition test (Lactobacillus fermentum; Ind 1 L. fermentum, 1.0 ppm, Inc Time 36): =
- bacterial growth in inhibition test (Lactobacillus fermentum; Ind 1 L. fermentum, 1.0 ppm, Inc Time 48): =
- bacterial growth in inhibition test (Lactobacillus fermentum; Ind 1 L. fermentum, 5.0 ppm, Inc Time 12): =
- bacterial growth in inhibition test (Lactobacillus fermentum; Ind 1 L. fermentum, 5.0 ppm, Inc Time 24): =
- bacterial growth in inhibition test (Lactobacillus fermentum; Ind 1 L. fermentum, 5.0 ppm, Inc Time 36): =
- bacterial growth in inhibition test (Lactobacillus fermentum; Ind 1 L. fermentum, 5.0 ppm, Inc Time 48): =
- bacterial growth in inhibition test (Lactobacillus brevis; Ind 1 L. brevis, 1 ppm, Inc Time 12): ±
- bacterial growth in inhibition test (Lactobacillus brevis; Ind 1 L. brevis, 1 ppm, Inc Time 24): +
- bacterial growth in inhibition test (Lactobacillus brevis; Ind 1 L. brevis, 1 ppm, Inc Time 36): +
- bacterial growth in inhibition test (Lactobacillus brevis; Ind 1 L. brevis, 1 ppm, Inc Time 48): +
- bacterial growth in inhibition test (Lactobacillus brevis; Ind 1 L. brevis, 2 ppm, Inc Time 12): ±
- bacterial growth in inhibition test (Lactobacillus brevis; Ind 1 L. brevis, 2 ppm, Inc Time 24): +
- bacterial growth in inhibition test (Lactobacillus brevis; Ind 1 L. brevis, 2 ppm, Inc Time 36): +
- bacterial growth in inhibition test (Lactobacillus brevis; Ind 1 L. brevis, 2 ppm, Inc Time 48): +
- bacterial growth in inhibition test (Lactobacillus brevis; Ind 1 L. brevis, 3 ppm, Inc Time 12): ±
- bacterial growth in inhibition test (Lactobacillus brevis; Ind 1 L. brevis, 3 ppm, Inc Time 24): +
- bacterial growth in inhibition test (Lactobacillus brevis; Ind 1 L. brevis, 3 ppm, Inc Time 36): +
- bacterial growth in inhibition test (Lactobacillus brevis; Ind 1 L. brevis, 3 ppm, Inc Time 48): +
- bacterial growth in inhibition test (Lactobacillus brevis; Ind 1 L. brevis, 4 ppm, Inc Time 12): ±
- bacterial growth in inhibition test (Lactobacillus brevis; Ind 1 L. brevis, 4 ppm, Inc Time 24): +
- bacterial growth in inhibition test (Lactobacillus brevis; Ind 1 L. brevis, 4 ppm, Inc Time 36): +
- bacterial growth in inhibition test (Lactobacillus brevis; Ind 1 L. brevis, 4 ppm, Inc Time 48): +
- bacterial growth in inhibition test (Lactobacillus brevis; Ind 1 L. brevis, 5 ppm, Inc Time 12): =
- bacterial growth in inhibition test (Lactobacillus brevis; Ind 1 L. brevis, 5 ppm, Inc Time 24): =
- bacterial growth in inhibition test (Lactobacillus brevis; Ind 1 L. brevis, 5 ppm, Inc Time 36): ±
- bacterial growth in inhibition test (Lactobacillus brevis; Ind 1 L. brevis, 5 ppm, Inc Time 48): +
- bacterial growth in inhibition test (Lactobacillus brevis; Ind 43 L. brevis, 1 ppm, Inc Time 12): =
- bacterial growth in inhibition test (Lactobacillus brevis; Ind 43 L. brevis, 1 ppm, Inc Time 24): +
- bacterial growth in inhibition test (Lactobacillus brevis; Ind 43 L. brevis, 1 ppm, Inc Time 36): +
- bacterial growth in inhibition test (Lactobacillus brevis; Ind 43 L. brevis, 1 ppm, Inc Time 48): +
- bacterial growth in inhibition test (Lactobacillus brevis; Ind 43 L. brevis, 2 ppm, Inc Time 12): =
- bacterial growth in inhibition test (Lactobacillus brevis; Ind 43 L. brevis, 2 ppm, Inc Time 24): +
- bacterial growth in inhibition test (Lactobacillus brevis; Ind 43 L. brevis, 2 ppm, Inc Time 36): +
- bacterial growth in inhibition test (Lactobacillus brevis; Ind 43 L. brevis, 2 ppm, Inc Time 48): +
- bacterial growth in inhibition test (Lactobacillus brevis; Ind 43 L. brevis, 3 ppm, Inc Time 12): =
- bacterial growth in inhibition test (Lactobacillus brevis; Ind 43 L. brevis, 3 ppm, Inc Time 24): +
- bacterial growth in inhibition test (Lactobacillus brevis; Ind 43 L. brevis, 3 ppm, Inc Time 36): +
- bacterial growth in inhibition test (Lactobacillus brevis; Ind 43 L. brevis, 3 ppm, Inc Time 48): +
- bacterial growth in inhibition test (Lactobacillus brevis; Ind 43 L. brevis, 4 ppm, Inc Time 12): =
- bacterial growth in inhibition test (Lactobacillus brevis; Ind 43 L. brevis, 4 ppm, Inc Time 24): ±
- bacterial growth in inhibition test (Lactobacillus brevis; Ind 43 L. brevis, 4 ppm, Inc Time 36): ±
- bacterial growth in inhibition test (Lactobacillus brevis; Ind 43 L. brevis, 4 ppm, Inc Time 48): +
- bacterial growth in inhibition test (Lactobacillus brevis; Ind 43 L. brevis, 5 ppm, Inc Time 12): =
- bacterial growth in inhibition test (Lactobacillus brevis; Ind 43 L. brevis, 5 ppm, Inc Time 24): ±
- bacterial growth in inhibition test (Lactobacillus brevis; Ind 43 L. brevis, 5 ppm, Inc Time 36): ±
- bacterial growth in inhibition test (Lactobacillus brevis; Ind 43 L. brevis, 5 ppm, Inc Time 48): +
